The test has as its system oxidative stress. Description: PET imaging of LPS-induced neuroinflammation with [11C]ERGO radioligand, with Tempol blocking. It counts as in vivo, mouse. The following applies: LPS-treated WT mice, Tempol 0.2 mg/mL prior to [11C]ERGO. On the procedure:
The mice were injected with ˜20 MBq/0.1 ml 11C-ERGO via the tail vein and returned to their cages for 10 min. Then they were anesthetized with 2% isofluorane and imaged in an Inveon microPET (Siemens Pre-clinical, Knoxville, Tenn., USA) for 30 min in static mode followed by a CT scan using a NanoSPECT/CT (Mediso, Wash. D.C.) at an x-ray beam intensity of […] and x-ray voltage of 45 kVp. PET images were reconstructed using the iterative MAP reconstruction algorithm with 18 iterations and a beta smoothing value of 0.001 into 128×128×95 slices with a voxel size of 0.388 mm×0.388 mm×0.796 mm. The CT images were reconstructed into 170×170×126 slices at a voxel size of 0.4×0.4×0.4 mm^3. The PET and CT images were co-registered using the imaging tool AMIDE.
The mouse model of LPS-induced neuroinflammation was developed based on past reports. The LPS derived from Escherichia coli […] (Sigma Aldrich, St Louis, Mo.) was formulated in sterilized dd. water and given a high dose of LPS formulation (5 mg/Kg) through intraperitoneal injection 24 h before PET imaging. This high dose would result in approximately 12-13% body weight loss over the course of 24 h. After PET imaging, animals were sacrificed, and the brains were collected for histology analysis.
The reported LPS mouse model of neuroinflammation in the past was reproduced for the validation of the specificity of the probe. […]

From US20230097883A1, “ERGOTHIONEINE PET COMPOUNDS AND METHODS OF USE THEREOF” (VANDERBILT UNIVERSITY, priority 2021, published 2023) come the findings set out here.

Take `CC1(C)CC(O)CC(C)(C)N1[O]` [Tempol, 4-hydroxy-2,2,6,6-tetramethyl piperidinoxyl, reference compound]: the “[11C]ERGO PET signal in brain of LPS-treated mice after co-injection with excess Tempol (blocking)” value was “significant reduction of the PET signal”.
